Assay results from patent US7148237B2, “Nitrogen-containing heteroaryl compounds having HIV integrase inhibitory activity” (Shionogi & Co., Ltd., priority 2001, dated 2006).

Legend:
integrase = integrase (Human immunodeficiency virus type 1 group M subtype B, UniProt P04585); test: Integrase inhibition assay (microtiter plate strand transfer, substrate DNA/target DNA, anti-digoxigenin ELISA readout); format: biochemical; details: concentration of the compound at percent inhibition 50%; OD at 405 nm
Description: The inhibitory activities against integrase of the compounds in the present invention have been determined by the assay described below.
Substrate DNA and target DNA, which sequences were indicated below, were synthesized by Amersham Pharmacia Biotech and dissolved in KTE buffer (composition: 100 mM KCl, 1 mM EDTA, 10 mM Tris-HCl (pH 7.6)) at concentration of 2 pmol/μl and 5 pmol/μl, respectively. The DNA solutions were annealed with each complement by slowly cooling after heating.
Streptavidin, obtained from Vector Laboratories, was dissolved in 0.1 M carbonate buffer (composition: 90 mM Na2CO3, 10 mM NaHCO3) at concentration of 40 μg/ml. After coating each well of microtiter plates (obtained from NUNC) with 50 μl of the above solution at 4° C. over night, each well was washed twice with PBS (composition: […], 0.27 mM KCl, 0.43 mM Na2HPO4, 0.14 mM KH2PO4) and blocked with 300 μL of 1% skim milk in PBS for 30 min. Additionally, each well was washed twice with PBS and added 50 μl of substrate DNA solution (2 pmol/μl). The microtiter plates were kept at room temperature for 30 min. Then, each well was washed twice with PBS and once with H2O.
Subsequently, in the each well prepared above were added 45 μl of the reaction buffer prepared from 12 μl of the buffer (composition: 150 mM MOPS (pH 7.2), 75 mM MnCl2, 50 mM 2-mercaptoethanol, 25% glycerol, 500 μg/ml bovine serum albumin-fraction V), 1 μl of target DNA (5 pmol/μl), and 32 μl of the distilled water. Additionally, 6 μl of either a test compound in DMSO or DMSO for positive control (PC) was mixed with the above reaction buffer, then 9 μl of an integrase solution (30 pmol) was added and mixed well. In the well of negative control (NC) was added 9 μl of the integrase dilution buffer (composition: 20 mM MOPS (pH7.2), 400 mM potassium glutamate, 1 mM EDTA, 0.1% NP-40, 20% glycerol, 1 mM DTT, 4 M urea).
The microtiter plates were incubated at 30° C. for 1 hour. The reaction solution was removed and each well was washed twice with PBS. Subsequently, each well of the microtiter plates was filled with 100 μl of anti-digoxigenin antibody labeled with alkaline phosphatase (Sheep Fab fragment: obtained from Boehringer) and incubated at 30° C. for 1 hour. Then, each well was washed twice with 0.05% Tween20 in PBS and once with PBS. Next, 150 μl of the Alkaline phosphatase reaction buffer (composition: 10 mM p-Nitrophenylphosphate (obtained from Vector Laboratories), 5 mM MgCl2, 100 mM NaCl, 100 mM Tris-HCl (pH 9.5)) was added in each well. The microtiter plates were incubated at 30° C. for 2 hours and the reaction was terminated by the addition of 50 μl of 1 N NaOH solution. The optical density (OD) at 405 nm of each well was measured and the percent inhibition was determined by the following expression. The percent inhibition (%)=100[1−{(C abs.−NC abs.)/(PC abs.−NC abs.)}] • C abs.; the OD of the well of the • NC abs.: the OD of the negative control (NC) • PC abs.: the OD of the positive control (PC)
When the percent inhibition (%) is X % at the concentration of x μg/ml and the percent inhibition (%) is Y % at the concentration of y μg/ml, one of which is more than 50% and the other is less than 50%, IC50 can be determined by the following expression. IC50(μg/ml)=x−{(X−50)(x−y)/(X−Y)}

| SMILES | IC50 (integrase) [nM] | melting point |
| --- | --- | --- |
| O=C(c1cc(Cl)c2[nH]c(Cc3ccc(F)cc3)nc2c1O)N1CCCC1 [Compound I-20] | 2030 | 268 to 272 °C (dec.) |
| COC(=O)c1cc(Cl)c2c(nc(Cc3ccc(F)cc3)n2C)c1O [Compound I-6] | 1270 | 198 to 201 °C |
| CCn1c(C)nc2c(O)c(-c3ncc(Cc4ccc(F)cc4)o3)ccc21 |  | 150 to 151 °C |
| O=C(c1ccc(Cc2ccc(F)cc2)o1)c1cc(Cl)c2cccnc2c1O |  | 126 to 128 °C |
| O=C(c1ccc(Sc2ccc(F)cc2)o1)c1cc(Cl)c2cccnc2c1O [Compound I-63] | 1050 | 120 to 122 °C |
| COC(=O)c1cc(Cl)c2[nH]c(Cc3ccc(F)cc3)nc2c1O [Compound I-1] | 1610 | 257 to 260 °C |
| COC(=O)c1cc(C(=O)Nc2ccccn2)c2cc(Cc3ccc(F)cc3)cnc2c1O |  | 190 to 194 °C |
| O=C(c1ccccc1)c1cc(C(=O)O)c2cc(Cc3ccc(F)cc3)cnc2c1O |  | 220 to 223 °C |
| Cc1nc2c(O)c(-c3nnc(Cc4ccccc4)o3)cc(Cl)c2[nH]1 [Compound I-35] | 704 | 255 to 257 °C |
| O=C(O)c1ccc2[nH]c(CCc3ccc(F)cc3)nc2c1O |  | 152 to 155 °C |
| CCOC(=O)c1cc(CC)c2cc(Cc3ccc(F)cc3)cnc2c1O |  | 78 to 80 °C |
| O=C(c1nccs1)c1ccc2[nH]c(Cc3ccc(F)cc3)nc2c1O [Compound I-27] | 538 | 239 to 240 °C |
| Cc1nc2c(O)c(-c3nnc(COc4ccccc4)o3)cc(Cl)c2[nH]1 [Compound I-37] | 1540 | 266 to 268 °C |
| O=C(O)c1cc(Cl)c2cc(Cc3ccc(F)cc3)cnc2c1O [Compound I-65] | 332 | 222 to 224 °C |
